Experimental findings from US5140009A (Tap Pharmaceuticals, Inc., priority 1990, dated 1992) are described below.

Numbered stars: 1 amine (or outer) side, 2 acyl side, 3 side chain; on linkers, the order of the positions; unused ones are H or OH. Square brackets hold non-standard residues; d marks the D form. Side chains are listed from the residue outwards. Peptide text beside a SMILES is read from it. * marks the point of attachment. Propanoyl(3-indol-3-yl) = O=C(CCc1c[nH]c2ccccc12)*; Butyryl(4-indol-3-yl) = O=C(CCCc1c[nH]c2ccccc12)*; Propanoyl(3,3-Ph2) = O=C(CC(c1ccccc1)c1ccccc1)*; Propanoyl(3-(4-F-phenyl)) = O=C(CCc1ccc(F)cc1)*; Propanoyl(3-(4-MeO-Ph)) = COc1ccc(CCC(=O)*)cc1; Propanoyl(3-(4-Cl-Ph)) = O=C(CCc1ccc(Cl)cc1)*; X10 = O=C([C@@H](Cc1cncs1)N[*:1])[*:2]; 1Nal = N[C@@H](Cc1cccc2ccccc12)C(=O)O; Desaminohistidyl = O=C(CCc1c[nH]cn1)*; Desaminotyrosyl = O=C(CCc1ccc(O)cc1)*; d1Nal = N[C@H](Cc1cccc2ccccc12)C(=O)O; d2Nal = N[C@H](Cc1ccc2ccccc2c1)C(=O)O; Lys(iPr) = CC(C)NCCCC[C@H](N)C(=O)O; NMeY = CN[C@@H](Cc1ccc(O)cc1)C(=O)O; Piperazinyl(4-Me) = CN1CCN(*)CC1; dCha = N[C@H](CC1CCCCC1)C(=O)O; Nicotinoyl = O=C(c1cccnc1)*; Morpholide = C1CN(*)CCO1; NHcHex = C1CCC(N*)CC1; CO = O=C([*:1])[*:2]

One assay has as its target T1, LHRH receptors (Rattus norvegicus, UniProt P30969).
T1 construct: Pituitary membranes containing LHRH receptors are prepared in batches from quick-frozen rat pituitaries; tissue Hilltop Labs; host or cells: rat pituitary membranes
T1 sequence (P30969 1-327): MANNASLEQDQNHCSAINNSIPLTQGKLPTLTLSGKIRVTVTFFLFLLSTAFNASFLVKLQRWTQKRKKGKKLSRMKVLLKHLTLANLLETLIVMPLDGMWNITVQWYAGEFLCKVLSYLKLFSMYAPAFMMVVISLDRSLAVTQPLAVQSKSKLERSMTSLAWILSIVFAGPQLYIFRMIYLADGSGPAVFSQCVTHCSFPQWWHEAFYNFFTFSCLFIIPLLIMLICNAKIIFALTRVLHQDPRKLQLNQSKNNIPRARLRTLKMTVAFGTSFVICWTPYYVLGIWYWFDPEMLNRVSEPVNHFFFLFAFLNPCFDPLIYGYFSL
In words: Receptor Binding (radioligand receptor binding assay). Conditions: Receptor Binding pkI, table 3; rat pituitary membranes, radioiodinated [D-Leu^6 -des Gly^10 ]-LHRH ethyl amide 50 pM, 2 hours at 4° C.
`CCNC(=O)[C@@H]1CCCN1C(=O)[C@H](CCCNC(=N)N)NC(=O)[C@H](CC(C)C)NC(=O)[C@@H](Cc1c[nH]c2ccccc12)NC(=O)[C@H](Cc1ccc(O)cc1)NC(=O)[C@H](CO)NC(=O)CC(c1ccccc1)c1ccccc1` [Compound 14, (4-9)[N-(3-Diphenylpropionyl)-Ser^4 -D-Trp^6 -Pro^9 -NHEt]LHRH] ({Propanoyl(3,3-Ph2)}-SY[dW]LRP-NHEt) showed a Ki of 15.8 nM.

Staying with this assay, now noted: table 3; rat pituitary membranes, radioiodinated [D-Leu^6 -des Gly^10 ]-LHRH ethyl amide 50 pM, 2 hours at 4° C.; read-out: Receptor Binding pkI (converted).
As for `CCNC(=O)[C@@H]1CCCN1C(=O)[C@H](CCCNC(=N)N)NC(=O)[C@H](CC(C)C)NC(=O)[C@@H](CC1CCCCC1)NC(=O)[C@H](Cc1ccc(O)cc1)NC(=O)[C@H](CO)NC(=O)CCCc1c[nH]c2ccccc12` [Compound 36, (4-9)[N-(4-(3-Indole)butyryl)-Ser^4 -D-Cha^6 -Pro^9 -NHEt]LHRH] ({Butyryl(4-indol-3-yl)}-SY[dCha]LRP-NHEt), the Ki is 17 nM.

Take `CCNC(=O)[C@@H]1CCCN1C(=O)[C@H](CCCNC(=N)N)NC(=O)[C@H](CC(C)C)NC(=O)[C@@H](Cc1c[nH]c2ccccc12)NC(=O)[C@H](Cc1ccc(O)cc1)NC(=O)[C@H](CO)NC(=O)C(Cc1cccc2ccccc12)NC(C)=O` (single isomer, unassigned) [Compound 82, (3-9)[N-Ac-1-Nal^3 -D-Trp^6 -Pro^9 NHEt]LHRH]: the Ki was 0.295 nM.

For the compound `CC(C)C[C@H](NC(=O)[C@@H](Cc1ccc2ccccc2c1)NC(=O)[C@H](Cc1ccc(O)cc1)NC(=O)[C@H](CO)NC(=O)CCc1c[nH]c2ccccc12)C(=O)N[C@@H](CCCNC(=N)N)C(=O)N1CCC[C@H]1C(=O)N[C@H](C)C(N)=O` [Compound 56, N-(3-(3-Indole)propionyl)-Ser-Tyr-D-2-Nal-Leu-Arg-Pro-D-AlaNH2] ({Propanoyl(3-indol-3-yl)}-SY[d2Nal]LRP[dA]-NH2), the Ki is 0.646 nM.

Regarding `CCNC(=O)[C@@H]1CCCN1C(=O)[C@H](CCCNC(=N)N)NC(=O)[C@H](CC(C)C)NC(=O)[C@@H](Cc1c[nH]c2ccccc12)NC(=O)[C@H](Cc1ccc(O)cc1)NC(=O)[C@H](CO)NC(=O)CCc1ccc(OC)cc1` [Compound 78, (4-9)[N-(3-(4-Methoxyphenyl)propionyl) -Ser^4 -D-Trp^6 -Pro^9 NHEt]LHRH] ({Propanoyl(3-(4-MeO-Ph))}-SY[dW]LRP-NHEt), the Ki was 10.7 nM.

Regarding `CCNC(=O)[C@@H]1CCCN1C(=O)[C@H](CCCNC(=N)N)NC(=O)[C@H](CC(C)C)NC(=O)[C@@H](Cc1c[nH]c2ccccc12)NC(=O)[C@H](Cc1ccc(O)cc1)NC(=O)[C@H](CO)NC(=O)[C@H](Cc1c[nH]c2ccccc12)NC(=O)[C@H](Cc1ccccc1)NC(=O)N1CCN(C)CC1` [Compound 128, (2-9)[N-(N-alpha-N-methylpiperazinocarbonyl)-Phe^2 -D-Trp^6 -Pro^9 NHEt]LHRH] ({Piperazinyl(4-Me)-CO}-FWSY[dW]LRP-NHEt), the Ki was 0.447 nM.

With `CCNC(=O)[C@@H]1CCCN1C(=O)[C@H](CCCNC(=N)N)NC(=O)[C@H](CC(C)C)NC(=O)[C@@H](Cc1c[nH]c2ccccc12)NC(=O)[C@H](Cc1ccc(O)cc1)NC(=O)[C@H](CO)NC(=O)[C@@H](Cc1c[nH]c2ccccc12)NC(=O)CCc1c[nH]c2ccccc12` [Compound 103, (3-9)[N-(3-Indolepropionyl)-D-Trp^3,6 -Pro^9 -NHEt]LHRH] ({Propanoyl(3-indol-3-yl)}-[dW]SY[dW]LRP-NHEt), the Ki was 0.0794 nM.

On to `CCNC(=O)[C@@H]1CCCN1C(=O)[C@H](CCCNC(=N)N)NC(=O)[C@H](CC(C)C)NC(=O)[C@@H](CCCCNC(=O)c1cccnc1)NC(=O)[C@H](Cc1ccc(O)cc1)NC(=O)[C@H](CO)NC(=O)[C@H](Cc1c[nH]c2ccccc12)NC(=O)[C@H](Cc1ccccc1)NC(=O)N1CCOCC1` [Compound 117, N-(N-alpha-Morpholinocarbonyl)-Phe-Trp-Ser-Tyr-D-Lys(Nic) -Leu-Arg-ProNHEt] ({Morpholide-CO}-FWSY[dK](Nicotinoyl)LRP-NHEt), for which the Ki was 1.86 nM.

`CCNC(=O)[C@@H]1CCCN1C(=O)[C@H](CCCN=C(N)N)NC(=O)[C@H](CC(C)C)NC(=O)[C@@H](Cc1c[nH]c2ccccc12)NC(=O)[C@H](Cc1ccc(O)cc1)NC(=O)[C@H](CO)NC(=O)[C@H](Cc1c[nH]c2ccccc12)NC(=O)CCc1ccc(O)cc1` [Compound 99, (3-9)[N-(3-(4-Hydroxyphenyl)propionyl) -Trp^3 -D-Trp^6 -Pro^9 NHEt]LHRH] (Desaminotyrosyl-WSY[dW]LRP-NHEt): the Ki was 0.0832 nM.

For `CCNC(=O)[C@@H]1CCCN1C(=O)[C@H](CCCNC(=N)N)NC(=O)[C@H](CC(C)C)NC(=O)[C@@H](Cc1c[nH]c2ccccc12)NC(=O)[C@H](Cc1ccc(O)cc1)NC(=O)[C@H](CO)NC(=O)[C@H](Cc1c[nH]c2ccccc12)NC(=O)[C@H](Cc1cccc2ccccc12)NC(=O)N1CCOCC1` [Compound 110, (2-9)[N-(N-alpha-Morpholinocarbonyl)-1-Nal^2 -D-Trp^6 -Pro^9 NHEt]LHRH] ({Morpholide-CO}-[1Nal]WSY[dW]LRP-NHEt), the Ki is 0.1 nM.

Regarding `CCNC(=O)[C@@H]1CCCN1C(=O)[C@H](CCCNC(=N)N)NC(=O)[C@H](CC(C)C)NC(=O)[C@@H](Cc1c[nH]c2ccccc12)NC(=O)[C@H](Cc1ccc(O)cc1)NC(=O)[C@H](CO)NC(=O)[C@H](Cc1c[nH]c2ccccc12)NC(=O)[C@H](Cc1ccccc1)NC(=O)NC1CCCCC1` [Compound 125, (2-9)[N-(N-alpha-Cyclohexylaminocarbonyl)-Phe^2 -D-Trp^6 -Pro^9 NHEt]LHRH] ({NHcHex-CO}-FWSY[dW]LRP-NHEt), the Ki is 0.251 nM.

Consider `CCNC(=O)[C@@H]1CCCN1C(=O)[C@H](CCCNC(=N)N)NC(=O)[C@H](CC(C)C)NC(=O)[C@@H](Cc1c[nH]c2ccccc12)NC(=O)[C@H](Cc1ccc(O)cc1)NC(=O)[C@H](CO)NC(=O)[C@@H](Cc1c[nH]c2ccccc12)NC(=O)CCc1ccc(F)cc1` [Compound 91, (3-9)[N-(3-(4-Fluorophenyl)propionyl) -D-Trp^3,6 Pro^9 NHEt]LHRH] ({Propanoyl(3-(4-F-phenyl))}-[dW]SY[dW]LRP-NHEt), for which the Ki is 0.0288 nM.

With `CCNC(=O)[C@@H]1CCCN1C(=O)[C@H](CCCNC(=N)N)NC(=O)[C@H](CC(C)C)NC(=O)[C@@H](Cc1c[nH]c2ccccc12)NC(=O)[C@H](Cc1ccc(O)cc1)NC(=O)[C@H](CO)NC(=O)[C@H](Cc1c[nH]c2ccccc12)NC(=O)CCc1c[nH]cn1` [Compound 61, N-[3-(4-Imidazolyl)propionyl]-Trp-Ser-Tyr-D-Trp-Leu-Arg-ProNHEt] (Desaminohistidyl-WSY[dW]LRP-NHEt), the Ki is 0.427 nM.

`CCNC(=O)[C@@H]1CCCN1C(=O)[C@H](CCCNC(=N)N)NC(=O)[C@H](CC(C)C)NC(=O)[C@@H](Cc1c[nH]c2ccccc12)NC(=O)[C@H](Cc1ccc(O)cc1)NC(=O)[C@H](CO)NC(=O)CCc1ccc(F)cc1` [Compound 77, (4-9)[N-(3-(4-Fluorophenyl)propionyl) -Ser^4 -D-Trp^6 -Pro^9 NHEt]LHRH] ({Propanoyl(3-(4-F-phenyl))}-SY[dW]LRP-NHEt): the Ki is 3.98 nM.

The same assay, now with this note: table 4; rat pituitary membranes, radioligand 50 pM, 2 hours at 4° C.; read-out: Receptor Binding pkI (converted).
Regarding `CCNC(=O)[C@@H]1CCCN1C(=O)[C@H](CCCN=C(N)N)NC(=O)[C@H](CC(C)C)NC(=O)[C@@H](CCCCNC(=O)c1cccnc1)NC(=O)[C@H](Cc1ccc(O)cc1)N(C)C(=O)[C@H](CO)NC(=O)[C@@H](Cc1c[nH]c2ccccc12)NC(=O)CCc1ccc(Cl)cc1` [Compound 154, (3-9)[N-(3-(4-Chlorophenyl)propionyl) -D-Trp^3 -NMeTyr^5 -DLys^6 (N-epsilon-nicotinyl)-Pro ^9 NHEt]LHRH] ({Propanoyl(3-(4-Cl-Ph))}-[dW]S[NMeY][dK](Nicotinoyl)LRP-NHEt), the Ki was 0.0316 nM.

Turning to `CC(C)C[C@H](NC(=O)[C@@H](CCCCN)NC(=O)[C@H](Cc1ccc(O)cc1)N(C)C(=O)[C@H](CO)NC(=O)[C@@H](Cc1cncs1)NC(=O)CCc1ccc(F)cc1)C(=O)N[C@@H](CCCNC(=N)N)C(=O)N1CCC[C@H]1C(=O)N[C@H](C)C(N)=O` [Compound 183, (3-10)[N-(3-(4-Fluorophenyl)propionyl)-D-Thiaz^3 -NMeTyr^5 -D-Lys^6 -D-Ala^10]LHRH] ({Propanoyl(3-(4-F-phenyl))}-[X10]S[NMeY][dK]LRP[dA]-NH2), the Ki is 0.0263 nM.

Take `CC(C)C[C@H](NC(=O)[C@@H](CCCCNC(=O)N1CCOCC1)NC(=O)[C@H](Cc1ccc(O)cc1)N(C)C(=O)[C@H](CO)NC(=O)[C@@H](Cc1cccc2ccccc12)NC(=O)CCc1ccc(F)cc1)C(=O)N[C@@H](CCCCNC(C)C)C(=O)N1CCC[C@H]1C(=O)N[C@H](C)C(N)=O` [Compound 213, N-(3-(4-Fluorophenyl)propionyl)-D-1-Nal-Ser-NMeTyr-D-Lys(N-epsilon-morpholnecarbonyl)-Leu-Lys(N-epsilon-isopropyl)-Pro-D-AlaNH2] ({Propanoyl(3-(4-F-phenyl))}-[d1Nal]S[NMeY][dK]([CO-Morpholide])L[Lys(iPr)]P[dA]-NH2): the Ki is 0.0148 nM.

On to `CCNC(=O)[C@@H]1CCCN1C(=O)[C@H](CCCN=C(N)N)NC(=O)[C@H](CC(C)C)NC(=O)[C@@H](Cc1c[nH]c2ccccc12)NC(=O)[C@H](Cc1ccc(O)cc1)NC(=O)[C@H](CO)NC(=O)[C@H]1CCCN1C(=O)CCc1ccc(F)cc1` [Compound 147, (3-9)[N-(3-(4-Fluorophenyl)propionyl) -D-Pro^3 -D-Trp^6 -Pro^9 NHEt]LHRH] ({Propanoyl(3-(4-F-phenyl))}-[dP]SY[dW]LRP-NHEt), for which the Ki was 0.02 nM.
